From PubChem BioAssay (NCI) come the findings set out here.

Some test systems named below: NCI-H522 lung; SW-620 colon; KM12 colon; U251 CNS; SF-295 CNS; NCI-H460 lung; SK-MEL-28 melanoma; M14 melanoma; RXF 393 renal.
Holding throughout (experiment): inhibition of tumour cell growth, NCI panel, 48 h

Each structure is given as a SMILES string.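 These data come from cells grown in 96-well plates and exposed to compound for 48 hours at five concentrations. At the GI50, growth is halved. TGI is the concentration that stops growth completely.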 Some results are limits rather than exact numbers.

With `COc1cc(C)c(C(=O)/C=C/c2cc(OC)c(O)c(OC)c2)cc1O`, the TGI was 39.6 µM in the assay on NCI-H522 lung; 70.8 µM with SW-620 colon; 50 µM in the assay with KM12 colon; 44.6 µM with U251 CNS; more than 100 µM in the assay with SF-295 CNS; more than 100 µM in the assay with NCI-H460 lung. For the same compound, the TGI came out at 41.4 µM in the assay on SK-MEL-28 melanoma and 29.9 µM in the assay with M14 melanoma.

Consider `COc1cc2ccc(CC#N)cc2cc1OC`, for which the TGI in the assay with SW-620 colon, with KM12 colon, in the assay with U251 CNS, with RXF 393 renal, with SF-295 CNS and with NCI-H460 lung was more than 100 µM each time. This compound yielded a TGI in the assay with SK-MEL-28 melanoma of more than 100 µM.

Take `CCOC(=O)CNC(SC)=C(C#N)C#N`: the TGI in the assay on NCI-H522 lung, with SW-620 colon, in the assay on KM12 colon, in the assay with U251 CNS, with RXF 393 renal and with SF-295 CNS was more than 100 µM each time. Moreover, the TGI in the assay with NCI-H460 lung and in the assay with M14 melanoma was more than 100 µM each time.

As to `CC(C)O/C=C1\C(=O)C2(SCCS2)[C@H]2CCCC[C@@H]12`, the TGI with NCI-H522 lung was 53.9 µM; in the assay on SW-620 colon, more than 100 µM; with KM12 colon it was more than 100 µM; with U251 CNS it was more than 100 µM; in the assay on RXF 393 renal, 57.8 µM; with NCI-H460 lung, more than 100 µM. For the same compound, the TGI in the assay with SK-MEL-28 melanoma and in the assay with M14 melanoma was more than 100 µM in each case.

With `O=C(N/C(=C\c1ccc([N+](=O)[O-])cc1)c1nc2[nH]c(=S)[nH]c(=O)c2[nH]1)c1ccccc1`, the TGI with NCI-H522 lung, with SW-620 colon, in the assay on KM12 colon, with U251 CNS, with RXF 393 renal and with SF-295 CNS was more than 100 µM each time. Besides, the TGI in the assay on SK-MEL-28 melanoma and in the assay on M14 melanoma was more than 100 µM each time.

As to `C(=C1\CCC/C(=C/c2ccccc2)C1=NNc1ccccc1)/c1ccccc1`, the TGI in the assay on NCI-H522 lung, in the assay on SW-620 colon, with KM12 colon, in the assay with U251 CNS, in the assay with RXF 393 renal and in the assay with SF-295 CNS was more than 100 µM throughout. Moreover, the TGI in the assay on NCI-H460 lung, with SK-MEL-28 melanoma and with M14 melanoma was more than 100 µM each time.

For `CSC(=S)N(C)NC(=O)c1cccc(C(=O)NN(C)C(=S)SC)n1`, the TGI was 40.1 µM in the assay with NCI-H522 lung; more than 100 µM with SW-620 colon; more than 100 µM with KM12 colon; 54.6 µM in the assay with U251 CNS; 74.4 µM with RXF 393 renal; 16 µM in the assay on SF-295 CNS. The TGI with NCI-H460 lung, in the assay on SK-MEL-28 melanoma and in the assay on M14 melanoma was more than 100 µM each time.

In the case of `COc1cc(NCC(C#N)C#N)ccc1N=Nc1ccc([N+](=O)[O-])cc1`, the TGI in the assay on NCI-H522 lung, in the assay on SW-620 colon, in the assay with KM12 colon, with U251 CNS, in the assay with RXF 393 renal and in the assay with SF-295 CNS was more than 100 µM each time. In addition, the TGI in the assay on NCI-H460 lung, with SK-MEL-28 melanoma and in the assay with M14 melanoma was more than 100 µM in each case.

Turning to `CC1=C(C(=O)Nc2ccccc2C)C(c2ccc(N(C)C)cc2)C(C(=O)Nc2ccccc2C)=C(C)N1`, the TGI in the assay on NCI-H522 lung, in the assay with SW-620 colon, in the assay on KM12 colon, with U251 CNS, in the assay with RXF 393 renal and in the assay on SF-295 CNS was more than 100 µM in each case. For the same compound, the TGI with NCI-H460 lung and in the assay on SK-MEL-28 melanoma was more than 100 µM throughout.

In the case of `CCCNC(=O)c1cc2ccccc2cc1C(=O)OC`, the TGI in the assay with NCI-H522 lung, in the assay with SW-620 colon, in the assay on KM12 colon, in the assay with U251 CNS, with SF-295 CNS and with NCI-H460 lung was more than 100 µM throughout. For the same compound, the TGI in the assay on SK-MEL-28 melanoma and with M14 melanoma was more than 100 µM throughout.

For `Cn1c(=O)c(C(c2ccccc2)c2c(O)c3ccccc3n(C)c2=O)c(O)c2ccccc21`, the TGI with NCI-H522 lung, in the assay on SW-620 colon, in the assay on KM12 colon, with U251 CNS, with RXF 393 renal and with SF-295 CNS was more than 100 µM throughout. The TGI in the assay on NCI-H460 lung, with SK-MEL-28 melanoma and with M14 melanoma was more than 100 µM in each case.

Consider `O=C1c2cnccc2Cc2cccc3c2N1c1ccccc1S3`, for which the TGI in the assay on NCI-H522 lung was found to be 32.2 µM; in the assay with SW-620 colon, 97.9 µM; with KM12 colon, 66 µM; in the assay with U251 CNS, 34 µM; in the assay with RXF 393 renal, 65.3 µM; in the assay on SF-295 CNS it was 63.2 µM. Further, the TGI is 78.2 µM in the assay on SK-MEL-28 melanoma and 58.8 µM in the assay on M14 melanoma.

For `COc1cc(C2[C@H]3C(=O)N(c4ccc(Cc5ccc(N6C(=O)[C@@H]7ON(c8ccccc8)C(c8cc(OC)c(OC)c(OC)c8)[C@@H]7C6=O)cc5)cc4)C(=O)[C@H]3ON2c2ccccc2)cc(OC)c1OC` (some centres undefined), the TGI in the assay on NCI-H522 lung, in the assay with SW-620 colon, in the assay with KM12 colon, in the assay on U251 CNS, with RXF 393 renal and in the assay with SF-295 CNS was more than 100 µM in each case. For the same compound, the values for the TGI with NCI-H460 lung, in the assay with SK-MEL-28 melanoma and with M14 melanoma were more than 100 µM, more than 100 µM and 48.6 µM, respectively.

Take `Cc1cn(C2C=CC(=O)C(C)O2)c(=O)[nH]c1=O` (centres undefined): the TGI was determined as 32.4 µM in the assay with NCI-H522 lung; 28.8 µM with SW-620 colon; 30.1 µM in the assay with KM12 colon; 28.6 µM in the assay on U251 CNS; 31.3 µM in the assay with SF-295 CNS; 35.5 µM in the assay with NCI-H460 lung. The TGI in the assay with SK-MEL-28 melanoma turned out to be 28.1 µM; in the assay with M14 melanoma it was 29.7 µM.

As for `CCN(CC)c1ccc(/C=C/C(=O)c2cccc(NS(C)(=O)=O)c2)cc1`, the GI50 in the assay on NCI-H522 lung is 87.7 µM; in the assay on SW-620 colon it was 3.27 µM; in the assay on KM12 colon it was 3.18 µM; in the assay with U251 CNS it was 10.9 µM; in the assay on RXF 393 renal it was 58 µM; with SF-295 CNS it was 5.91 µM. Further, the GI50 in the assay on NCI-H460 lung was 4.72 µM; with SK-MEL-28 melanoma it was 43.5 µM; in the assay with M14 melanoma it was 4.1 µM. In addition, the TGI in the assay with NCI-H522 lung, in the assay with SW-620 colon, in the assay on KM12 colon, with U251 CNS, in the assay with RXF 393 renal and in the assay with SF-295 CNS was more than 100 µM throughout. Moreover, the TGI with NCI-H460 lung, in the assay on SK-MEL-28 melanoma and in the assay with M14 melanoma was more than 100 µM throughout.
